How the values were obtained:
[1] = Aqueous solubility (deionized water); assay type: physicochemical; conditions: room temperature
[2] = Partition coefficient (octanol-phosphate buffer); assay type: physicochemical; conditions: pH 7.4
[3] = pKa by UV-metric method; assay type: physicochemical; conditions: read-out: pKa Values (second value)
[4] = biological target: T1, human plasma kallikrein (Homo sapiens, UniProt P03952); experiment: Plasma kallikrein activity, chromogenic substrate S2302; assay type: biochemical
T1 construct: purchased Enzyme Research Laboratories, South Bend, IN, USA
Protocol: The effect of compounds of the disclosure on human plasma kallikrein activity is determined by the method described in Zhang et al. (Medicinal Chemistry, 2006, No. 6, p 547). Briefly, plasma kallikrein activity is determined using a chromogenic substrate (S2302). In these experiments, 2 nM plasma kallikrein (Enzyme Research Laboratories, South Bend, IN, USA) is incubated with 80 μM S2302 (H-D-Pro-Phe-Arg-p-nitroaniline) in the absence or presence of increasing concentrations of compounds of the disclosure in a final volume of 200 μL Tris-HCI buffer (200 mM NaCl; 2.5 mM CaCl2; 50 mM Tris-HCl, pH 7.8). Assay reactions were initiated by adding enzyme into pre-mixed solution of inhibitors and substrate (enzyme initiated reaction) After incubation at 30° C., the activity of plasma kallikrein is measured as a change in absorbance at OD 405 nm (for example using a BioTek PowerWave X340 Microplate Reader, Winooski, VT, USA or equivalent device). Data are analyzed using appropriate software (for example, Four Parameter Logistic Curve, SigmaPlot software, Systat Software, Inc., San Jose, CA, USA or equivalent).

[5] = tested on: Dutch belted rabbits; experiment: Ocular tolerability after suprachoroidal (SCS) injection; assay type: in vivo
Protocol: (§1) Dutch belted rabbits were used in the study.
(§2) 100 μL of the suspension was administered bilaterally to the suprachoroidal space of the eye, at a dose of 0.5 mg/eye. Two rabbits (4 eyes) were treated per time point, except at day 28, when 3 rabbits were treated. Plasma was collected at 3 hours, 1 day, 3 days, 7 days, 10 days, 14 days, 21 days, 28 days, 56 days, and 84 days post-dose. Aqueous humor, vitreous humor, peripheral retina, peripheral sclera/choroid/RPE, central retina, and central sclera/choroid/RPE punch punch tissues were collected at 1 day, 7 days, 14 days, 28 days, 56 days and 84 days post-dose. Ocular examinations and intraocular pressure (IOP) were also assessed, anterior and posterior segments, at 1 day, 7 days, 14 days, 28 days, 56 days, and 84 days post-dose. Redness, chemosis, discharge, opacity, aqueous flare, cellular flare, vitreous flare, retinal vasculature, retinal and choroidal pathology were assessed at those time points.

[6] = Ocular PK (tissue drug levels) after SCS injection; assay type: in vivo, Dutch belted rabbits
Protocol: as §1, §2

[7] = Systemic (plasma) PK after SCS injection; assay type: in vivo, Dutch belted rabbits; conditions: SCS 0.5 mg/eye, FIG. 5
Protocol: as §1, §2

T1 sequence (P03952 391-638 limits assumed): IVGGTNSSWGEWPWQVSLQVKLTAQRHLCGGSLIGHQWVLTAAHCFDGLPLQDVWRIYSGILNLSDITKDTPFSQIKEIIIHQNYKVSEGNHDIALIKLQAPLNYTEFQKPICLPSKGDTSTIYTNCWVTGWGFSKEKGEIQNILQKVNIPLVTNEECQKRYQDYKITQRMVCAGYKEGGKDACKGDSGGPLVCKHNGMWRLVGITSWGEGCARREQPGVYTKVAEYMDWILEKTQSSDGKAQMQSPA
T1 sequence (P03952 20-390 partner limits assumed): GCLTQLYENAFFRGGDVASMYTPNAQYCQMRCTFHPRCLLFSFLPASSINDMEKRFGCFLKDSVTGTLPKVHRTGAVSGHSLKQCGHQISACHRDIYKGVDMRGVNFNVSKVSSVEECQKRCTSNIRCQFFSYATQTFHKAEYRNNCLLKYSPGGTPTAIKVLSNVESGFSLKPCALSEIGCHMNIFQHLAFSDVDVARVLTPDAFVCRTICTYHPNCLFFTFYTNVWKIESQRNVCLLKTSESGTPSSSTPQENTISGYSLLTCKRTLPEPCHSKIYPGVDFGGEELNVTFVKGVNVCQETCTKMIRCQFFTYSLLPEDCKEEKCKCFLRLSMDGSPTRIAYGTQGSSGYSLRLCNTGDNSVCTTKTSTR

Structure (SMILES): C=Cc1cc(C(=O)Nc2ccc(C(=N)N)cc2)c(-c2ccc(C(=O)NCC3CC3)nc2C(=O)O)cc1OC.Cl [BCX4161, avoralstat]
- solubility [1]: 20 to 40 µg/mL
- Partition Coefficient (octanol-phosphate buffer), log D7.4 [2]: log D7.4 = 1.9
- pKa [3]: 11.4
- inhibition of human plasma kallikrein activity (in words) [4]: potent and highly specific inhibitor
- tolerability ([5]; 0.5% suspension, single SCS injection, 0.5 mg/eye): well tolerated
- ocular exam score ([5]; all observations, SCS 0.5 mg/eye): 0
- conjunctival redness and chemosis ([5]; day 1 post-dose, SCS 0.5 mg/eye): Mild
- adverse events ([5]; days 7, 14, 28, 56, or 84 post-dose, SCS 0.5 mg/eye): No adverse events
- duration of highly favorable PK profile ([6]; 0.5% suspension, single SCS injection): at least 3 months
- drug levels in central and peripheral RPE/choroid/sclera ([6]; SCS 0.5 mg/eye, FIG. 1): High drug levels
- drug levels in central and peripheral retina ([6]; SCS 0.5 mg/eye, FIG. 2): High levels
- drug levels in the aqueous humor ([6]; SCS 0.5 mg/eye, FIG. 4C): low levels
- drug levels in the vitreous humor ([6]; SCS 0.5 mg/eye, FIGS. 4A and 4B): moderate to low levels
- time high drug levels present in central and peripheral RPE/choroid/sclera ([6]; after SCS injection 0.5 mg/eye): ≥ 84 days
- time high drug levels present in central and peripheral retina ([6]; after SCS injection 0.5 mg/eye): ≥ 84 days
- systemic exposure [7]: minimal to no systemic exposure

From US12589093B2, “Plasma kallikrein inhibitors and methods of use thereof in ocular disorders” (BIOCRYST PHARMACEUTICALS, INC., priority 2019, dated 2026)
